Where two headings read alike, the source gives them in different places.
How the values were obtained:
Vero E6 fibroblasts = assay: Cellular toxicity in Vero E6 fibroblasts; assay type: cell-based; conditions: compared to oxybenzone
Excerpt: (§1) The cellular toxicity of gadusol was compared to that of a common sunscreen ingredient, oxybenzone. Vero E6 fibroblasts were used to evaluate toxicity.

Ames test (mutagenicity) = assay type: cell-based
Comet assay = assay type: cell-based
Excerpt: as §1

E. coli = assay: Toxicity towards E. coli; assay type: cell-based
[1] = Antioxidant capacity, Folin-Ciocalteu method; conditions: 0.3 to 10 mg/ml, versus porphyra-334
cells = assay: In vivo antioxidant testing (intracytoplasmic activity in cells); assay type: cell-based; conditions: for lysis of the cells: highest dose 3.3 mg/ml
Method: The test is designed to measure antioxidant power but requires also that the anti-oxidant agent cross the cell's lipid boundary layer so that only intracytoplasmic activity is measured. […] Some activity was seen even at concentrations below 0.1 mg/ml.

[2] = Storage stability of gadusol; assay type: physicochemical; conditions: after 90 days at pH 2.5
Excerpt: Addition of an antioxidant could be helpful in increasing the shelf life of gadusol. The stability of gadusol is much higher when stored under acidic conditions. For example, 90% activity was retained after 90 days at pH 2.5. Therefore, storage under acidic conditions may be useful for stabilizing gadusol generally, e.g., prior to introduction into a topical formulation. Combining gadusol with another antioxidant may be useful for extending the shelf life or stability of gadusol in a topical formulation. Storage of gadusol in nitrogen-purged solutions in containers with minimal headspace increased its stability.

[3] = UV absorbance (absorption maximum, molar extinction coefficient); assay type: physicochemical; conditions: for UV maximum: under acidic conditions
Excerpt: Gadusol, gadusporine A 100, gadusporine, B 102, and gadusporine C 104 may be isolated by column purification of Streptomyces coelicolor culture broth (as described in the above publication).
Despite the only difference being a hydroxy group, there are a few notable differences between shinorine and gadusporine A 100. Shinorine has been reported to have an absorption max=330 nm at pH 1.7 and an absorption max=334 nm at pH 7. […] Gadusporine A 100 has a molar extinction coefficient (□□=49,400, as measured in 50 mM phosphate buffer at pH 7.0, which is slightly higher than that of shinorine (□□=44,000), and thus has stronger UV absorbance activity.

Solubility in methanol = assay type: physicochemical
Excerpt: Gadusporine B 102 contains L-alanine and glycine, making gadusporine B 102 an analog of mycosporine-glycine-alanine.

[4] = cited from earlier work

In the case of `COC1=C(O)CC(O)(CO)C(O)C1=O` (stereo not shown) [Gadusol], the cellular toxicity (Vero E6 fibroblasts) is reported as “less toxic than oxybenzone”, the mutagenicity (Ames test (mutagenicity)) is reported as “not to be mutagenic” and the “toxicity in comet assay” value (Comet assay) is reported as “nor toxic in the comet assay”. For the same compound, the “toxicity towards E. coli” value (E. coli) was “nor toxic towards E. coli”, the antioxidant power [1] was “equivalent to a mycosporine compound” and the “in vivo antioxidant activity” value (cells; at about 1 mg/ml, versus the mycosporine) was “significantly more active antioxidant”. The “lysis of the cells” value (cells) was “some lysis of the cells”, the “in vivo antioxidant activity” value (cells; overall, compared with porphyra-334) was “outperformed porphyra-334” and the activity retained [2] was 90%.
In the case of Gadusporine B, the UV maximum [3] is reported as 338 nm and the solubility in methanol (Solubility in methanol) is reported as “not very soluble in methanol”.
For `COC1=C(NCC(=O)O)C[C@@](O)(CO)CC1=N[C@H](C(=O)O)[C@@H](C)O` [porphyra-334, reference compound], the “lysis of the cells” value (cells) was “some lysis of the cells”.
In the case of Gadusporine A, the molar extinction coefficient ([3]; 50 mM phosphate buffer at pH 7.0, in M-1 cm-1 (unit assumed)) is reported as 49,400, the absorption max ([3]; pH 2.0) is reported as 338 and the absorption max ([3]; pH 7.0) is reported as 340 nm. It also gave a UV maximum [3] of 338 nm.
For `COC1=C(NCC(=O)O)C[C@@](O)(CO)C/C1=N\[C@@H](CO)C(=O)O` [Shinorine], the absorption max ([4]; pH 1.7, reported) is given as 330 nm, the absorption max ([4]; pH 7, reported) is given as 334 nm and the molar extinction coefficient ([4]; shinorine comparison value) is given as 44,000.
